Series [1] addresses T1, F159W-Leuko-PNP (Homo sapiens, UniProt P00491, F159W/W16Y/W178Y/W94Y).
T1 sequence (P00491 1-289 W16Y/W94Y/F159W/W178Y): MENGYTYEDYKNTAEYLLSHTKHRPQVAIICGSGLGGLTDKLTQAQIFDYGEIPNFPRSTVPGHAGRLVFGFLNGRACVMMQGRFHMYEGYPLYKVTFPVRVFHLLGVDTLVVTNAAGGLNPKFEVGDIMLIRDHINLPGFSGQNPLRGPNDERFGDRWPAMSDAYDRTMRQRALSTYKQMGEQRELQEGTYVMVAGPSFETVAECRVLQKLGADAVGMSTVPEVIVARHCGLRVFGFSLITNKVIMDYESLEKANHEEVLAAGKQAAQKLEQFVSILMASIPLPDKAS
Particulars: relative to native and Leuko-PNP (Table 2).

Series [2] has as its target Leuko-PNP. The following applies: read-out: Ki* (slow-onset tight binding constant); 50 mM KH2PO4, pH 7.4, 25 °C; cited from earlier work.
Series [3] has as its target Native PNP. The following applies: read-out: Ki* (slow-onset tight binding constant); 50 mM KH2PO4, pH 7.4, 25 °C; cited from earlier work.
Series [4] deals with T1, F159W-Leuko-PNP. Put plainly: Steady state kinetics, xanthine oxidase coupled assay with inosine as substrate. In kind it is biochemical.
The target of series [5] is T1, F159W-Leuko-PNP. Put plainly: Fluorometric titration of hypoxanthine-free enzyme with ligands. In kind it is binding. Particulars: for Kd: pH 7.4, 25 °C.
The subject of series [6] is Leuko-PNP. Particulars: inosine as substrate; 50 mM KH2PO4, pH 7.4, 25 °C; cited from earlier work.
In series [7] the test system is Native PNP. The following applies: inosine as substrate; 50 mM KH2PO4, pH 7.4, 25 °C; cited from earlier work.
Series [8] has as its system Leuko-PNP-PO4. The following applies: stopped-flow fluorometry; cited from earlier work.
The subject of series [9] is Leuko-PNP-PO4. The following applies: T-jump relaxation kinetics; cited from earlier work.
For series [10], the target named is T2, F159W-Leuko-PNP-PO4 (Homo sapiens, UniProt P00491, F159W/W16Y/W178Y/W94Y). Particulars: F159W-Leuko-PNP-Hx-PO4 system, 25 °C.
In series [11] the target is T2, F159W-Leuko-PNP-PO4. Put plainly: biochemical.
Substrate in series [12]: OC[C@H]1O[C@@H](n2cnc3c(O)ncnc32)[C@H](O)[C@@H]1O
Put plainly: Steady state kinetics, xanthine oxidase coupled assay with inosine as substrate. Particulars: other: inosine as substrate, 50 mM KH2PO4, pH 7.4, 25 °C. In kind it is biochemical, human.

Where two headings read alike, the source gives them in different places.

The Ki is a dissociation constant, usually derived from enzyme kinetics or from competition with a known ligand. With “4'-deaza-1'-aza-2'-deoxy-1'-(9-methylene)-Immucillin-H [DADMe-ImmH]”, the “reduction of binding affinity to F159W-Leuko-PNP” value on F159W-Leuko-PNP [1] was around 10 fold. Further, the Ki on Leuko-PNP [2] is 0.012 ± 0.003 nM; at Native PNP [3] it was 0.0085 ± 0.0003 nM.
Broadly, the Km is the concentration of substrate that gives half-maximal velocity. Broadly, the kcat is the maximal rate divided by the concentration of active sites. With `O=c1[nH]cnc2c1ncn2[C@@H]1O[C@H](CO)[C@@H](O)[C@H]1O` [Inosine, inosine], on F159W-Leuko-PNP [4], the “Km altered, F159W-Leuko-PNP vs native and Trp-free enzymes” value is around 7 fold; the “kcat altered, F159W-Leuko-PNP vs native and Trp-free enzymes” value was around 2 fold; the “overall catalytic efficiency reduced relative to native- and Leuko-PNPs” value was around 14 fold. At F159W-Leuko-PNP [5] (up to ∼100 μM, absence or presence of inorganic sulfate (up to 3 mM)), the “effect on fluorescence emission spectrum of the enzyme” value is given as “does not alter the fluorescence emission spectrum”. Besides, in the series with Leuko-PNP [6], the Km was 50 ± 3 µM and the kcat is 36 ± 1 s⁻¹. In addition, in the series with Native PNP [7], the Km is 71 ± 8 µM and the kcat was 44 ± 2 s⁻¹.
As usually defined, the koff is the rate constant with which the complex falls apart. The term kon denotes the second-order rate constant of association. As to `Nc1nc2nc[nH]c2c(=O)[nH]1` [guanine], in the series on Leuko-PNP-PO4 [8], the koff was 86 ± 8 s⁻¹ and the kon was 2.7 ± 0.1 × 10^7 M^−1s^−1. In the series on Leuko-PNP-PO4 [9], the koff was 142 ± 36 s⁻¹ and the kon is 3.6 ± 0.2 × 10^7 M^−1s^−1.
A word on the Kd: it is the equilibrium constant for the complex coming apart. At F159W-Leuko-PNP [5] (absence of phosphate, 20 mM Tris-Cl), `O=c1[nH]cnc2nc[nH]c12` [hypoxanthine] had a Kd of 3300 ± 200 nM. On F159W-Leuko-PNP [5] (presence of phosphate (50 mM KH2PO4)), the Kd came out at 16000 ± 2000 nM. In addition, on F159W-Leuko-PNP [5] (absence or presence of phosphate (50 mM KH2PO4), λex 295 nm), the “decrease in fluorescence intensity upon titration” value came out at 3 fold. Further, on F159W-Leuko-PNP-PO4 [10], the k1 entry is given as “(1.2 ± 0.1) × 10^7 M^−1s^−1” and the “k−1” value stood at 178 ± 8 s⁻¹. In addition, at F159W-Leuko-PNP-PO4 [11] (read-out: calculated dissociation rate (koff)), the koff is 178 ± 8 s⁻¹. The kon at F159W-Leuko-PNP-PO4 [11] (read-out: rate of association (kon)) came out at 1.2e+07 M⁻¹ s⁻¹.
Take Immucillin-H [ImmH]: the “reduction of binding affinity to F159W-Leuko-PNP” value on F159W-Leuko-PNP [1] is listed as around 20 fold. The Ki at Leuko-PNP [2] is 0.134 ± 0.012 nM; on Native PNP [3] it was 0.088 ± 0.003 nM.

B1: F159W-Leuko-PNP (Homo sapiens; F159W/W16Y/W178Y/W94Y) (protein)
chain: MENGYTYEDYKNTAEYLLSHTKHRPQVAIICGSGLGGLTDKLTQAQIFDYGEIPNFPRSTVPGHAGRLVFGFLNGRACVMMQGRFHMYEGYPLYKVTFPVRVFHLLGVDTLVVTNAAGGLNPKFEVGDIMLIRDHINLPGFSGQNPLRGPNDERFGDRWPAMSDAYDRTMRQRALSTYKQMGEQRELQEGTYVMVAGPSFETVAECRVLQKLGADAVGMSTVPEVIVARHCGLRVFGFSLITNKVIMDYESLEKANHEEVLAAGKQAAQKLEQFVSILMASIPLPDKAS
As usually defined, the kcat/Km is the second-order rate constant that governs catalysis at low substrate concentration. For B1, in series [12], the Km amounted to 422 ± 30 µM, the kcat is 22 ± 1 s⁻¹ and the kcat/Km is 52000 ± 4000 M⁻¹ s⁻¹.

Source of the values: publication PMC2674222 (Biochemistry, 2009).
